PubChem BioAssay AID1745844 (Carcinogenic Potency Database (CPDB), 2022)
Several values for one entry are separate records, joined by “and”; a condition that tells them apart may be missing. Equal values may be shown once. Activity calls are given as the source filed them. The rule behind the calls is not given here.

Test system: rodent lifetime carcinogenesis bioassay, tumor incidence TD50
Experiment: carcinogenic potency in animals, long-term in vivo studies, CPDB compilation (AID 1745844)

## C[C@]12CC[C@@H]3c4ccc(OC(=O)Cc5ccc(N(CCCl)CCCl)cc5)cc4CC[C@H]3[C@@H]1CC[C@@H]2OC(=O)Cc1ccc(N(CCCl)CCCl)cc1
mouse, strain B6C3F1, females, by gavage, site: all sites + lung + myocardium + stomach, lesion: lymphoma + alveolar/bronchiolar adenoma + alveolar/bronchiolar carcinoma + sarcoma, NOS + squamous-cell carcinoma, dosed 52 weeks, study length 84 weeks
  TD50: 0.682 mg/kg/day
mouse, strain B6C3F1, females, by gavage, site: all sites, lesion: lymphoma, dosed 52 weeks, study length 82 weeks
  TD50: 2.23 mg/kg/day
mouse, strain B6C3F1, females, by gavage, site: all sites, lesion: lymphoma, dosed 52 weeks, study length 84 weeks
  TD50: 2.34 mg/kg/day
mouse, strain B6C3F1, females, by gavage, site: any site (literature study), lesion: several types, types named in the paper, dosed 52 weeks, study length 84 weeks
  TD50: 0.562 mg/kg/day
mouse, strain B6C3F1, females, by gavage, site: lung, lesion: alveolar/bronchiolar adenoma + alveolar/bronchiolar carcinoma, dosed 52 weeks, study length 82 weeks
  TD50: 1.28 mg/kg/day
mouse, strain B6C3F1, females, by gavage, site: lung, lesion: alveolar/bronchiolar adenoma + alveolar/bronchiolar carcinoma, dosed 52 weeks, study length 84 weeks
  TD50: 1.14 mg/kg/day
mouse, strain B6C3F1, females, by gavage, site: lung, lesion: alveolar/bronchiolar carcinoma, dosed 52 weeks, study length 82 weeks
  TD50: 2.87 mg/kg/day
mouse, strain B6C3F1, females, by gavage, site: mammary gland, lesion: adenocarcinoma, NOS + carcinoma, NOS, dosed 52 weeks, study length 82 weeks
  TD50: 12.8 mg/kg/day
mouse, strain B6C3F1, females, by gavage, site: mammary gland, lesion: adenocarcinoma, NOS + carcinoma, NOS, dosed 52 weeks, study length 84 weeks
  TD50: 13.4 mg/kg/day
mouse, strain B6C3F1, females, by gavage, site: myocardium, lesion: sarcoma, NOS, dosed 52 weeks, study length 82 weeks
  TD50: 3.22 mg/kg/day
mouse, strain B6C3F1, females, by gavage, site: myocardium, lesion: sarcoma, NOS, dosed 52 weeks, study length 84 weeks
  TD50: 3.01 mg/kg/day
mouse, strain B6C3F1, females, by gavage, site: stomach, lesion: squamous-cell carcinoma, dosed 52 weeks, study length 84 weeks
  TD50: 5.17 mg/kg/day
mouse, strain B6C3F1, males, by gavage, site: all sites + stomach, lesion: leukemia + lymphoma + squamous-cell carcinoma, dosed 52 weeks, study length 83 weeks
  TD50: 4.1 mg/kg/day
mouse, strain B6C3F1, males, by gavage, site: all sites, lesion: leukemia + lymphoma, dosed 52 weeks, study length 81 weeks
  TD50: 4.31 mg/kg/day
mouse, strain B6C3F1, males, by gavage, site: all sites, lesion: leukemia + lymphoma, dosed 52 weeks, study length 83 weeks
  TD50: 4.39 mg/kg/day
mouse, strain B6C3F1, males, by gavage, site: any site (literature study), lesion: several types, types named in the paper, dosed 52 weeks, study length 83 weeks
  TD50: 1.96 mg/kg/day
mouse, strain B6C3F1, males, by gavage, site: lung, lesion: alveolar/bronchiolar adenoma + alveolar/bronchiolar carcinoma, dosed 52 weeks, study length 81 weeks
  TD50: 1.99 mg/kg/day
mouse, strain B6C3F1, males, by gavage, site: lung, lesion: alveolar/bronchiolar adenoma + alveolar/bronchiolar carcinoma, dosed 52 weeks, study length 83 weeks
  TD50: 2.34 mg/kg/day
mouse, strain B6C3F1, males, by gavage, site: lung, lesion: alveolar/bronchiolar carcinoma, dosed 52 weeks, study length 81 weeks
  TD50: 3.61 mg/kg/day
mouse, strain B6C3F1, males, by gavage, site: myocardium, lesion: sarcoma, NOS, dosed 52 weeks, study length 81 weeks
  TD50: 5.55 mg/kg/day
mouse, strain B6C3F1, males, by gavage, site: stomach, lesion: squamous-cell carcinoma, dosed 52 weeks, study length 83 weeks
  TD50: 29 mg/kg/day
rat, strain Sprague-Dawley, females, by gavage, site: any site (literature study), lesion: several types, types named in the paper, dosed 52 weeks, study length 85 weeks
  TD50: 0.189 mg/kg/day (inactive)
rat, strain Sprague-Dawley, males, by gavage, site: any site (literature study), lesion: several types, types named in the paper, dosed 52 weeks, study length 85 weeks
  TD50: 3.85 mg/kg/day (inactive)
rat, strain Sprague-Dawley, males, by gavage, site: mammary gland, lesion: fibroadenoma, dosed 52 weeks, study length 85 weeks
  TD50: 0.756 mg/kg/day (inactive)

## O=C1NCCN1/N=C/c1ccc([N+](=O)[O-])o1
rat, strain Sprague-Dawley, females, in feed, site: all sites, lesion: lymphoblastic lymphoma, dosed 46 weeks, study length 66 weeks
  TD50: 82 mg/kg/day
rat, strain Sprague-Dawley, females, in feed, site: mammary gland, lesion: adenocarcinoma, dosed 46 weeks, study length 66 weeks
  TD50: 5.26 mg/kg/day

## COC(=O)c1ccc(C(=O)OC)cc1
mouse, strain B6C3F1, females, in feed, site: any site (literature study), lesion: several types, types named in the paper, dosed 103 weeks, study length 105 weeks
  TD50: 4340 mg/kg/day (inactive)
mouse, strain B6C3F1, females, in feed, site: lung, lesion: alveolar/bronchiolar adenoma + alveolar/bronchiolar carcinoma, dosed 103 weeks, study length 105 weeks
  TD50: 44000 mg/kg/day
mouse, strain B6C3F1, males, in feed, site: lung, lesion: alveolar/bronchiolar adenoma + alveolar/bronchiolar carcinoma, dosed 103 weeks, study length 104 weeks
  TD50: 1160 mg/kg/day (inactive) and 1160 mg/kg/day
rat, strain Fischer 344, females, in feed, site: any site (literature study), lesion: several types, types named in the paper, dosed 103 weeks, study length 105 weeks
  TD50: 342 mg/kg/day (inactive)
rat, strain Fischer 344, males, in feed, site: any site (literature study), lesion: several types, types named in the paper, dosed 103 weeks, study length 105 weeks
  carcinogen call: negative (inactive)

## CCC(CC)C(=O)NC(N)=O
rat, strain Fischer 344, males, in feed, site: kidney, lesion: tubular-cell adenoma, dosed 71 weeks, study length 71 weeks
  TD50: 30.4 mg/kg/day

## CC1CC(C)(C)CC(OOC(C)(C)C)(OOC(C)(C)C)C1 (configuration not stated)
mouse, strain B6C3F1, females, in feed, site: any site (literature study), lesion: malignant tumor, dosed 78 weeks, study length 83 weeks
  TD50: 9310 mg/kg/day (inactive)
mouse, strain B6C3F1, females, in feed, site: any site (literature study), lesion: one or several types, types not named, dosed 78 weeks, study length 83 weeks
  TD50: 4230 mg/kg/day (inactive)
mouse, strain B6C3F1, females, in feed, site: liver, lesion: one or several types, types not named, dosed 78 weeks, study length 83 weeks
  carcinogen call: negative (inactive)
mouse, strain B6C3F1, females, in feed, site: lung, lesion: alveolar/bronchiolar adenoma, dosed 78 weeks, study length 83 weeks
  carcinogen call: negative (inactive)
mouse, strain B6C3F1, females, in feed, site: lung, lesion: alveolar/bronchiolar carcinoma, dosed 78 weeks, study length 83 weeks
  TD50: 19900 mg/kg/day (inactive)
mouse, strain B6C3F1, males, in feed, site: any site (literature study), lesion: malignant tumor, dosed 78 weeks, study length 83 weeks
  carcinogen call: negative (inactive)
mouse, strain B6C3F1, males, in feed, site: any site (literature study), lesion: one or several types, types not named, dosed 78 weeks, study length 83 weeks
  TD50: 4980 mg/kg/day (inactive)
mouse, strain B6C3F1, males, in feed, site: liver, lesion: hepatocellular adenoma, dosed 78 weeks, study length 83 weeks
  TD50: 1490 mg/kg/day (inactive)
mouse, strain B6C3F1, males, in feed, site: liver, lesion: hepatocellular carcinoma, dosed 78 weeks, study length 83 weeks
  carcinogen call: negative (inactive)
mouse, strain B6C3F1, males, in feed, site: lung, lesion: alveolar/bronchiolar adenoma, dosed 78 weeks, study length 83 weeks
  TD50: 7.6e+09 mg/kg/day (inactive)
mouse, strain B6C3F1, males, in feed, site: lung, lesion: alveolar/bronchiolar carcinoma, dosed 78 weeks, study length 83 weeks
  carcinogen call: negative (inactive)

## NNCCc1ccccc1
mouse, strain Swiss albino, females, in drinking water, site: blood vessels, lesion: angiosarcoma, dosed 93 weeks, study length 93 weeks
  TD50: 20.4 mg/kg/day
mouse, strain Swiss albino, females, in drinking water, site: blood vessels, lesion: several types, types named in the paper, dosed 93 weeks, study length 93 weeks
  TD50: 14.6 mg/kg/day
mouse, strain Swiss albino, females, in drinking water, site: fat, lesion: angiosarcoma, dosed 93 weeks, study length 93 weeks
  TD50: 23.7 mg/kg/day
mouse, strain Swiss albino, females, in drinking water, site: liver, lesion: several types, types named in the paper, dosed 93 weeks, study length 93 weeks
  TD50: 278 mg/kg/day
mouse, strain Swiss albino, females, in drinking water, site: lung, lesion: adenoma, dosed 93 weeks, study length 93 weeks
  TD50: 25.8 mg/kg/day
mouse, strain Swiss albino, females, in drinking water, site: lung, lesion: angiosarcoma, dosed 93 weeks, study length 93 weeks
  TD50: 123 mg/kg/day
mouse, strain Swiss albino, females, in drinking water, site: lung, lesion: several types, types named in the paper, dosed 93 weeks, study length 93 weeks
  TD50: 27.5 mg/kg/day
mouse, strain Swiss albino, females, in drinking water, site: muscle, lesion: angiosarcoma, dosed 93 weeks, study length 93 weeks
  TD50: 21.7 mg/kg/day
mouse, strain Swiss albino, females, in drinking water, site: subcutaneous tissue, lesion: angiosarcoma, dosed 93 weeks, study length 93 weeks
  TD50: 19.9 mg/kg/day
mouse, strain Swiss albino, males, in drinking water, site: liver, lesion: several types, types named in the paper, dosed 99 weeks, study length 99 weeks
  carcinogen call: negative (inactive)
mouse, strain Swiss albino, males, in drinking water, site: lung, lesion: adenoma, dosed 99 weeks, study length 99 weeks
  TD50: 30 mg/kg/day (inactive)
mouse, strain Swiss albino, males, in drinking water, site: lung, lesion: several types, types named in the paper, dosed 99 weeks, study length 99 weeks
  TD50: 33.1 mg/kg/day (inactive)

## Cc1c2ccccc2c(C)c2c1ccc1ccccc12
mouse, strain albino, females, in feed, site: forestomach, lesion: papilloma, dosed 60 weeks, study length 60 weeks
  TD50: 0.287 mg/kg/day
mouse, strain albino, females, in feed, site: mesenteric intestine, lesion: angio-endothelioma, malignant, dosed 60 weeks, study length 60 weeks
  TD50: 0.084 mg/kg/day

## O=[N+]([O-])c1ccc2c(c1)Cc1ccccc1-2
rat, strain Wistar, males, in feed, site: forestomach, lesion: several types, types named in the paper, dosed 47 weeks, study length 104 weeks
  TD50: 0.285 mg/kg/day
rat, strain Wistar, males, in feed, site: forestomach, lesion: squamous-cell carcinoma, dosed 47 weeks, study length 104 weeks
  TD50: 1.12 mg/kg/day
rat, strain Wistar, males, in feed, site: kidney, lesion: cortical carcinoma, dosed 47 weeks, study length 104 weeks
  TD50: 2.35 mg/kg/day
rat, strain Wistar, males, in feed, site: kidney, lesion: several types, types named in the paper, dosed 47 weeks, study length 104 weeks
  TD50: 3 mg/kg/day
rat, strain Wistar, males, in feed, site: liver, lesion: hepatocellular carcinoma, dosed 47 weeks, study length 104 weeks
  TD50: 2.1 mg/kg/day
